Measured values published in patent publication US9944600B2, “Piperidine derivatives for GPR119 agonist” (CHONG KUN DANG PHARMACEUTICAL CORP., priority 2012, dated 2018).

Tests used:
GPR 119 Receptor [1] = biological target: T1, GPR 119 Receptor (Mus musculus, UniProt Q7TQP3); experiment: Glucose tolerance test / whole blood glucose level change in disease model animal (DIO mouse); assay type: in vivo; conditions: daily
T1 construct: from tissue; host or cells: whole animal: male C57/6J Jms mice (normal) or diet induced obesity C57BL/6J mice
T1 sequence (Q7TQP3 1-335): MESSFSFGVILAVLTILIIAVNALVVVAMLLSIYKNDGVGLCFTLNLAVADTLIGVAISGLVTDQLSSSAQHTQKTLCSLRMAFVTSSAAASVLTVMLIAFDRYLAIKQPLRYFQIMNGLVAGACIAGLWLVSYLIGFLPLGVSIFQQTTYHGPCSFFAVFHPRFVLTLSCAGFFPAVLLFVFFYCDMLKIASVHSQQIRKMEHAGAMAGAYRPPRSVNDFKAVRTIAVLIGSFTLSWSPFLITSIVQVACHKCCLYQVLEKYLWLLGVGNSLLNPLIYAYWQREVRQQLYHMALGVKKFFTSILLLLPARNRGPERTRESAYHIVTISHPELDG
Protocol: Male C57BL/6J mice of 6.5 weeks of age were taken with high fat diet (60% kcal, Research Diets) for 12 weeks. The obtained male diet induced obesity (DIO) C57BL/6J mice of 18.5 weeks of age were fasted for 16 hours before the start of glucose tolerance test. The experimental animal groups consist of: • A. a vehicle group (10% EtOH, 20% HPBCD in D.W.), • B. a positive control group administered with Sitagliptin (30 mg/kg), and • C. test groups administered with compound 770 and Compound 1028 (10, 30 mgkg and combination administration with sitagliptin 30 mg/kg).
Each test compounds was administered at the same time of every day for 2 weeks. Before the compound administration, whole blood glucose level was determined using a Glucometer (ACCU-CHEK, Roche). At 30 minutes after compound administration, whole blood glucose level was determined once again, and 20% glucose (2 g/kg/10 mL) was administered orally. Whole blood glucose level was determined at 20, 40, 60, 80, and 120 minutes after 20% glucose administration. Area under the curve (AUC) of whole blood glucose level was obtained using GraphPad Prism 5.0. The effect of glucose tolerance was adjudged with the corrected area under the curve (cAUC), on which the base value of glucose area under the curve was excluded.
Whole blood glucose level was measured at about 1 hour after test compound administration from caudal vein of mice using Glucometer. Whole blood glucose level was determined three times totally, that is, (1) at prior to the start of drug administration, (2) after 1 week from the start of 2-weeks drug administration, and (3) after the termination of 2-weeks drug administration. Each determination was started with 20% glucose administration, and then perfomed at 20, 40, 60, 80, and 120 minutes after 20% glucose administration.

human GPR119 receptor = biological target: T2, human GPR119 receptor (Homo sapiens, UniProt Q8TDV5); experiment: Activity test for human GPR119 receptor (GeneBLAzer T-Rex GPR 119 CHO-K1 DA cells, fluorescence reporter); assay type: cell-based; conditions: human GPR119 CHO-K1 reporter cells, 5 hours treatment, ratio to vehicle control well, read-out: % Activation; for activity at 0.1 µM: test compound conc. 0.1 μM; for activity at 1 µM: test compound conc. 1 μM; for activity at 10 µM: test compound conc. 10 μM
T2 construct: host or cells: GeneBLAzer T-Rex GPR 119 CHO-K1 DA cells (CHO-K1)
T2 sequence (Q8TDV5 1-335): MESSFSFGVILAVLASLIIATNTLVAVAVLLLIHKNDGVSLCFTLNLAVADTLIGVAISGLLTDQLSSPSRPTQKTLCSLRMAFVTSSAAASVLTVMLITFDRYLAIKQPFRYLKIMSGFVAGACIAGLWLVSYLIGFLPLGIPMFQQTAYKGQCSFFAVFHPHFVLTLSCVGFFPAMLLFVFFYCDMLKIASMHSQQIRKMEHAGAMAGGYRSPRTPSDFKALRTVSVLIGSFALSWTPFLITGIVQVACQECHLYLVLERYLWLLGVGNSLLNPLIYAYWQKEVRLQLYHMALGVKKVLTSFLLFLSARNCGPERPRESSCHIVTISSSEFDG
Protocol: As a human GPR119 receptor expression cell for this test, the cell line “GeneBLAzer™ T-Rex GPR 119 CHO-K1 DA cells” that is commercially available from Invitrogen, was used. The cell was incubated in the DMEM media containing 1% dialyzed fetal bovine serum etc. The cell incubator was kept at constant temperature and constant humidity of 37° C., 5% CO2.
The human GPR119 receptor expressing cell was used to this test. Each of test compounds was added to be final concentrations of 0.1, 1, 10 μM in 96 well and tested in duplicate. A fixed amount of cell was added to each well of 96 well separately, and then treated with the test compound for 5 hours. After treatment of color development agent for 2 hours, the fluorescence value was determined with plate reader. To the luminous wavelength of control well, which was not treated with the agonist sample, but in which only a vehicle (i.e., cell) was contained, the ratio of the luminous wavelength of test well, which was treated with the agonist sample, was calculated, and then converted to obtain % value.
All the results were expressed as mean±SD, and each test groups and the control group were compared using student's t-test to adjudge the effects of each test groups.

GPR 119 Receptor [2] = biological target: T1, GPR 119 Receptor; experiment: Glucose tolerance test in normal mouse (animal test of activity for the GPR 119 receptor); assay type: in vivo; conditions: normal male C57/6J Jms mice, oral glucose 2 g/kg, whole blood glucose AUC
Protocol: Male C57/6J Jms mice of 6-7 weeks of age were fasted for 16 hours before the start of glucose tolerance test. The experimental animal groups consist of: • A. a vehicle group (10% EtOH, 20% HPBCD in saline), • B. a positive control group administered with MBX-2982 (10 mg/kg), and • C. test groups administered with compound 516, 581, 586, 612, 640, 644 or etc. (10 mg/kg).
Before compound administration, that is, at 0 hour, whole blood glucose level was determined using a Glucometer (ACCU-CHEK, Roche). At 30 minutes after compound administration, whole blood glucose level was determined once again, and 20% glucose (2 g/kg/10 mL) was administered orally. Whole blood glucose level was determined at 20, 40, 60, 80, and 120 minutes after 20% glucose administration. Area under the curve (AUC) of whole blood glucose level was obtained using GraphPad Prism 5.0. The effect of glucose tolerance was adjudged with the corrected area under the curve (cAUC), on which the base value of glucose area under the curve was excluded.

[3] = 30 mpk alone, 0 week (prior to start of administration)

SMILES	Whole Blood Glucose Level Change (%) by drug administration (GPR 119 Receptor [1]; [3]) [%]	Whole Blood Glucose Level Change (%) by drug administration (GPR 119 Receptor [1]; 30 mpk alone, 1 week) [%]	Whole Blood Glucose Level Change (%) by drug administration (GPR 119 Receptor [1]; 30 mpk alone, 2 weeks) [%]	activity at 0.1 µM (human GPR119 receptor) [%]	activity at 1 µM (human GPR119 receptor) [%]	activity at 10 µM (human GPR119 receptor) [%]	Decrease % of AUC at 10 mg/kg (GPR 119 Receptor [2]) [%]	Whole Blood Glucose Level Change (%) by drug administration (GPR 119 Receptor [1]; 10 mpk alone, 0 week (prior to start of administration)) [%]	Whole Blood Glucose Level Change (%) by drug administration (GPR 119 Receptor [1]; 10 mpk alone, 1 week) [%]	Whole Blood Glucose Level Change (%) by drug administration (GPR 119 Receptor [1]; 10 mpk alone, 2 weeks) [%]
N[C@@H](CC(=O)N1CCn2c(nnc2C(F)(F)F)C1)Cc1cc(F)c(F)cc1F [Sitagliptin, reference compound]	0	25.5	31.7	–	–	–	–	–	–	–
CC(C)(F)CN1CCC(COc2cnc(-c3ccc(C(=O)N4CCC[C@H]4C(N)=O)cc3)cn2)CC1 [Compound 950, (S)-1-(4-(5-((1-(2-fluoro-2-methylpropyl)piperidin-4-yl)methoxy)pyrazine-2-yl)benzoyl)pyrrolidine-2-carboxamide]	–	–	–	191	232	307	39	–	–	–
CC(C)(F)CN1CCC(COc2cnc(-c3ccc(C(=O)N4CCC[C@H]4C(N)=O)c(F)c3)nc2)CC1 [Compound 1032, (S)-1-(2-fluoro-4-(5-((1-(2-fluoro-2-methylpropyl)piperidin-4-yl)methoxy)pyrimidin-2-yl)benzoyl)pyrrolidine-2-carboxamide]	–	–	–	321	459	430	31	–	–	–
CC(C)(F)CN1CCC(COc2ccc(-c3ccc(C(=O)N4CCC[C@H]4C(N)=O)c(F)c3)nc2)CC1 [Compound 770, (S)-1-(2-fluoro-4-(5-((1-(2-fluoro-2-methylpropyl)piperidin-4-yl)methoxy)pyridine-2-yl)benzoyl)pyrrolidine-2-carboxamide]	0	25.5	26.6	228	280	310	47	0	22.9	24.0
